Experimental data reported in US5741671A, “Isolation cloning and expression of transmembrane water channel aquaporin 1(AQP1)” (The Johns Hopkins University, priority 1995, dated 1998).

Tests used:
Red cell water channels = settings: cited from earlier work
AQP1 [1] = target: T1, AQP1 (Homo sapiens, UniProt P29972); assay: Xenopus oocyte swelling assay, AQP1 cRNA-injected oocytes (Example 11); type: cell-based; parameters: expressed in transfected cells; host or cells: Xenopus oocytes injected with AQP1 cRNA
T1 sequence (P29972 1-269): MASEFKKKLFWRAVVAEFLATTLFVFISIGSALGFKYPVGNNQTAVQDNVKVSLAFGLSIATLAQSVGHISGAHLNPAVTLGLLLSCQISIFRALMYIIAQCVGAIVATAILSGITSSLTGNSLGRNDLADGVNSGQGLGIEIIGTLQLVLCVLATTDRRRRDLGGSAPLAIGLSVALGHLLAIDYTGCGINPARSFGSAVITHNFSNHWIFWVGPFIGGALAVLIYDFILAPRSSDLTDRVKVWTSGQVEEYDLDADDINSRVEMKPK

AQP1 [2] = target: T2, AQP1 (Homo sapiens, UniProt P29972); assay: Stopped-flow osmotic water permeability of AQP1 proteoliposomes; type: biochemical
T2 construct: Human erythrocytes were obtained from blood-bank units stored up to 5 weeks; from tissue; host or cells: human erythrocytes (blood-bank units; small-scale preparations from freshly drawn whole blood)
T2 sequence (P29972 2-269 limits assumed): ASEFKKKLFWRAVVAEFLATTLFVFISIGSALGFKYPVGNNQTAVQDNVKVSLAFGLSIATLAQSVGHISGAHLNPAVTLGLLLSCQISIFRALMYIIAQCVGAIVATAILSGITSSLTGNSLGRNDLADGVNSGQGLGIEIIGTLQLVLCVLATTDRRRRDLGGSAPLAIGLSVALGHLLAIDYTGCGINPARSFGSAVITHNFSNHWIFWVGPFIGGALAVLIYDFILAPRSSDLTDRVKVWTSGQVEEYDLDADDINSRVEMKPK
Text: Preparation AQP1-containing proteoliposomes. Crude Escherichia coli lipid was obtained from Avanti Polar Lipids, Inc., and neutral lipid was removed by acetone/ether wash (Ambudkar & Maloney, 1986, Methods. Enzymol. 125:558-563). The purified E. coli bulk phospholipid is composed of phosphalidylethanolamine (70%), phosphatidylglycerol (15%), and cardiolipin (15%) (Chen & Wilson, […], Proc. Natl. Acad. Sci. USA 83:2652-2656). E. coli bulk phospholipid was employed since it has previously been used for functional reconstitution of several transport proteins including the glucose transporter of RBCs (Maloney & Ambudkar, 1989, Arch. Biochem. Biophys. 269:1-10; Chen et al., 1986, Proc. Natl. Acad. Sci. USA 83:2652-2656).
Highly purified AQP1 protein was incorporated into proteoliposomes by detergent dilution; control liposomes were formed in an identical manner without AQP1 protein.
Purified AQP1 was stored overnight at 0° C. or frozen for several days at -80° C. prior to reconstitution. Reconstitution into proteoliposomes was carried out in a final volume of 1 ml containing 60-90 μg of purified AQP1 protein in chromatography buffer, 9 mg of bath-sonicated E. coli phospholipid, 1.25% (w/v) octyl glucoside, and 50 mM Tris-HCl (pH 7.5). The mixture was briefly blended on a vortex mixer and incubated for 20 minutes on ice. Proteoliposomes (or liposomes prepared without protein) were formed at room temperature by rapidly injecting the mixture into 25 ml of buffer A [50 mM MOPS, pH 7.5, 150 mM N-methyl-D-glucamine (NMDG) chloride also containing 10-15 mM carboxyfluorescein, 1 mM dithiothreitol, and 0.5 mM PMSF]. For the measurement of proton permeability, proteoliposomes and liposomes were loaded with buffer B (5 mM MOPS, pH 7.5, 150 mM KCl, 0.5 mM carboxyfluorescein, 1 mM dithiothreitol, and 0.5 mM PMSF). The suspension was incubated for 20 minutes at room temperature. Proteoliposomes or liposomes were collected by centrifugation for 1 hour at 123000×g in a Beckman Type 42.1 rotor at 4° C. The pellet was resuspended in 8 ml of buffer A or B and then centrifuged for 1 hour at 152000×g in a Beckman Type 50 Ti rotor. Proteoliposomes or liposomes were resuspended in 300 μl of buffer A or B and stored at 4° C. for 16-24 hours. Typically 50% (54±6%, n=5) of the AQP1 protein and 70% of the phospholipid were recovered in proteoliposomes. The lipid to protein ratio was in the range of 120:1 to 219:1. […] Protein and phospholipid were measured as described by Ambudkar & Maloney (J. Biol. Chem., 1986, 261:10079-10086).
Permeability measurements. Membrane permeability measurements (Pf) were measured by exposing AQP1 proteoliposomes or control liposomes to an osmotic gradient by rapid mixing with an equal volume of another solution containing buffer A plus sufficient sucrose to increase osmolality in the mixed solutions to a value 120% of that in the original solution. This was performed with a stopped-flow fluorometer (SF.17MV, Applied Photophysics, Leatherhead, U.K.) with a measured dead time of 0.7 ms. […] Extravesicular carboxyfluorescein fluorescence was completely quenched using anti-fluorescein antibody (Harris et al., 1990, Am. J. Physiol. 259:F366-F371). Within the range of osmolalities used in these experiments, the vesicles acted as perfect osmometers, and relative volume (absolute volume divided by initial volume) was linearly related to relative fluorescence (absolute fluorescence divided by initial fluorescence). […]

Structure (SMILES) | inhibition of the red cell / membrane water channel (Red cell water channels; submillimolar concentrations) | inhibition of the increase in Pf mediated by AQP1 (AQP1 [1]; 1 mM HgCl2, 5 min) | Pf after mercurial treatment (AQP1 [2]; CHIP28 proteoliposomes, 1 mM HgCl2, 3 minutes at 37° C.) | time to complete inhibition of Pf (AQP1 [2]; CHIP28 proteoliposomes, 1 mM, 37° C.) | restoration of the membrane water channel after HgCl2 (Red cell water channels; 5 mM β-mercaptoethanol) | restoration of Pf of AQP1-expressing oocytes after HgCl2 (AQP1 [1]; 5 mM β-mercaptoethanol 30 min after 1 mM HgCl2) | reversal of inhibition by mercurial reagents (AQP1 [2]; 5 mM β-mercaptoethanol after pCMBS or HgCl2)
[Cl][Hg][Cl] [HgCl2] | can be inhibited by submillimolar concentrations | blocked | 0.007±0.003 cm/s | ≤ 5 min |  |  | 
OCCS [β-mercaptoethanol] |  |  |  |  | may be restored | restored | completely reversed
